In patent US7781641B2, “Absorbent article” (Kao Corporation, priority 2003, dated 2010):

Assay: Method of measuring viscosity (tuning fork type vibration mode viscometer)
Format: physicochemical
Description: Measurement is conducted using a tuning fork type vibration mode viscometer (VIBRO NISCOMETERCJV5000 (manufactured by A&D Company Limited) is typically used in this embodiment). An oily skin care agent heated previously at about 100° C. is gradually cooled to room temperature, and viscosity at the predetermined temperature is measured.
“Viscosity of a diamide derivative” in the present invention was measured by the same measuring method as used for the viscosity of an oily skin care agent in the above mentioned first embodiment.

viscosity at 36° C.: 1000 mPa·s
SMILES: CCCCCCCCCCCCCCCCOCC(O)CN(CCO)C(=O)CCCCCCCCCCCCCCC (stereo not shown) [Monoamide of the formula (III)]
